pEC50: −log10 of the molar value. Entries after “also recorded” stand apart in the source; their conditions may differ. Read-outs that look alike come from different tables or passages of the source.
How the values were obtained:
[1] = tested on: HEK293T cells; conditions: below 50 μmol/L, CCK-8
[2] = tested on: HCoV-OC43; assay: HCoV-OC43 cytopathic effects; type: cell-based
[3] = tested on: SARS-CoV-2; conditions: read-out: EC50 SARS-CoV-2 in vitro; cited from earlier work
[4] = cited from earlier work
[5] = rats, orally administered; cited from earlier work
[6] = orally administered, cited from earlier work
[7] = molecular target: SARS-CoV-2 RdRp with nsp10–nsp14 exoribonuclease complex (Severe acute respiratory syndrome coronavirus 2, UniProt P0DTD1); type: cell-based; conditions: with versus without nsp10–nsp14
[8] = molecular target: T1, SARS-CoV-2 RdRp (Severe acute respiratory syndrome coronavirus 2, UniProt P0DTD1); assay: biochemical; conditions: read-out: inhibition of polymerase activity
[9] = molecular target: T1, SARS-CoV-2 RdRp; assay: cell-based
[10] = molecular target: SARS-CoV-2 Mpro (Severe acute respiratory syndrome coronavirus 2, UniProt P0DTD1); assay: SARS-CoV-2 Mpro enzyme activity inhibition assay; type: biochemical; conditions: 10 μmol/L

Compound | cytotoxicity on HEK293T cells [1] | concentration protecting cells from CPE induced by HCoV-OC43 [2] [µmol/L] | pEC50 [3] | LD50 [4] | acute dose showing maximum tolerance [4] | toxicity in acute toxicity studies ([4]; oral) | maximum plasma concentration (Cmax) [5] [µg/mL] | half lifetime (t1/2) ([6]; mice and rats) | time to Cmax (Tmax) ([6]; mice and rats) [h] | maximum plasma concentration (Cmax) ([6]; mice) [µg/mL] | fold increase in EC50 on expression of nsp10–nsp14 [7] | inhibition at 2.5 µM [8] [%] | inhibition at 10 µM [8] [%] | inhibition at 40 µM [8] [%] | pEC50 [9] | inhibitory effect on SARS-CoV-2 Mpro [10]
CCC(CC)COC(=O)[C@H](C)N[P@](=O)(OC[C@H]1O[C@@](C#N)(c2ccc3c(N)ncnn23)[C@H](O)[C@@H]1O)Oc1ccccc1 [remdesivir, reference compound] | Neither remdesivir nor RAI-S-37 showed cytotoxicity | 0.39 | – | – | – | – | – | – | – | – | – | – | – | – | – | –
NC(=O)c1ncn([C@@H]2O[C@H](CO)[C@@H](O)[C@H]2O)n1 [ribavirin] | – | – | 3.96 | – | – | – | – | – | – | – | – | – | – | – | – | –
O=C(O[C@@H]1O[C@@H]2COC(=O)c3cc(O)c(O)c(O)c3-c3c(cc(O)c(O)c3O)C(=O)O[C@H]([C@H]1O)[C@@H]2O)c1cc(O)c(O)c(O)c1 [RAI-S-37, Corilagin] | Neither remdesivir nor RAI-S-37 showed cytotoxicity | 0.78 | – | 3500–5000 mg/kg b. wt. | up to 3500 mg/kg body weight (b.wt.) | did not show any toxicity | 52.37 | about 6 h | ~2 | 57.0 | same EC50 values; also recorded: remain the same | 24 | 73 | 83 | 5.48 | did not show any inhibitory effect

Reference: publication PMC7883726 (Acta Pharmaceutica Sinica. B, 2021)
